Active and inactive are the calls of the source. The calls are words filed in the database; no cut-off is given here.
Key:
Beclin-1 [1] = target: T1, Beclin-1 (Homo sapiens, UniProt Q14457); test: Binding affinity to Beclin 1 coiled coil domain (unknown origin) by isothermal titration calorimetry assay
SK-BR-3 [2] = test: Induction of apoptosis in human SK-BR-3 cells assessed as dead cells at 10 uM measured after 24 hrs by annexin V-FITC/PI staining based flow cytometry analysis (Rvb= 5.0%); assay type: functional
SK-BR-3 [3] = test: Induction of apoptosis in human SK-BR-3 cells assessed as increase in cell death at 10 uM in presence of Z-VAD-FMK measured after 24 hrs by trypan blue exclusion assay; assay type: functional, cell-based
SK-BR-3 [4] = test: Induction of apoptosis […] in human SK-BR-3 cells assessed as late apoptotic cells at 5 uM incubated for 24 hrs by flow cytometry with Annexin V-FITC/propidium iodide staining based flow cytometry analysis (Rvb= 2.2%); assay type: functional
[5] = target: Epidermal growth factor receptor (Homo sapiens) (UniProt P00533); test: Induction of endolysosomal trafficking of EGFR in human SK-BR-3 cells assessed as EGF-induced degradation of EGFR at 2 uM measured after 15 hrs post-EGF stimulation by western blot analysis relative to control; assay type: cell-based
Sequence of Epidermal growth factor receptor (Homo sapiens) (P00533 whole entry): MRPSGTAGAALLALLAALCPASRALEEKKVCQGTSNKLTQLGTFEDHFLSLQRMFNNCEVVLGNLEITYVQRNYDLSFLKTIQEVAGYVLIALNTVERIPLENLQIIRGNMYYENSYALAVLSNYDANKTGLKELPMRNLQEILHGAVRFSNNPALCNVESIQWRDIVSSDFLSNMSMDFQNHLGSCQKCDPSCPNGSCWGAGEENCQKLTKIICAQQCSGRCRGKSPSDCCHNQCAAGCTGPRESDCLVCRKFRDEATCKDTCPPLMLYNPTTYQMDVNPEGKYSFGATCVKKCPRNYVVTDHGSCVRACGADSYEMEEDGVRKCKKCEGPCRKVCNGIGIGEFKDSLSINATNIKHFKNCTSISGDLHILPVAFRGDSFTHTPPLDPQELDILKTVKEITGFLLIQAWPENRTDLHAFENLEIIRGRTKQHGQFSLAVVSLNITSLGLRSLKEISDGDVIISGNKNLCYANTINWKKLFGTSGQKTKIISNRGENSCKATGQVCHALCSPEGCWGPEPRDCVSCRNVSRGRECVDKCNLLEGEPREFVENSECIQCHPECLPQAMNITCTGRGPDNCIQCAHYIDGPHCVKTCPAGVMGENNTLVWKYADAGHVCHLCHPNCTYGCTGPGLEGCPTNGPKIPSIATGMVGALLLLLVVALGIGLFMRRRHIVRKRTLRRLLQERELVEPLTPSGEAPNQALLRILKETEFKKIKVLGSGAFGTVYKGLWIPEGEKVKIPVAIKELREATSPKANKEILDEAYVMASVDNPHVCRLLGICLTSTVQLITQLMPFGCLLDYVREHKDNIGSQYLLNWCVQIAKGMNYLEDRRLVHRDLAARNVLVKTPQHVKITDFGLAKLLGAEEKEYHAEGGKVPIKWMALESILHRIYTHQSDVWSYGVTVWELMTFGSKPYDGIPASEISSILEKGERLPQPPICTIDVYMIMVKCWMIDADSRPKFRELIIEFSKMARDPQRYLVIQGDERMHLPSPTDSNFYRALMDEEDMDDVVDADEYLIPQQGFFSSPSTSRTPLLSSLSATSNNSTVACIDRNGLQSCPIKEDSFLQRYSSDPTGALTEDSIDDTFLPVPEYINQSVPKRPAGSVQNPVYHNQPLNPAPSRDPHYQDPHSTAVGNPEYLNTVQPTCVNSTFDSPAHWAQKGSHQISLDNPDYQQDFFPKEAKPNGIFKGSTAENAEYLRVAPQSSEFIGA

SK-BR-3 [6] = test: Induction of apoptosis in human SK-BR-3 cells assessed as early apoptotic cells at 10 uM measured after 24 hrs by annexin V-FITC/PI staining based flow cytometry analysis (Rvb= 2.2%); assay type: functional
SK-BR-3 [7] = test: Induction of apoptosis in human SK-BR-3 cells assessed as live cells at 5 uM measured after 24 hrs by annexin V-FITC/PI staining based flow cytometry analysis (Rvb= 90.6%); assay type: functional
HEK-293T [8] = test: Induction of autophagy in human HEK293T cells assessed as increase in p62 protein level at 10 to 20 uM in presence of chloroquine measured after 3 hrs by western blot analysis; assay type: functional, cell-based; settings: dose 10-20 µM
SK-BR-3 [9] = test: Antiproliferative activity against human SK-BR-3 cells assessed as reduction of cell growth measured after 24 hrs by trypan blue exclusion assay; settings: SK-BR-3, 24 h
HEK-293T [10] = test: Induction of autophagy in human HEK293T cells assessed as increase in p62 protein level at 10 to 20 uM measured after 3 hrs by western blot analysis; assay type: functional, cell-based; settings: dose 10-20 µM
[11] = target: Receptor tyrosine-protein kinase erbB-2 (Homo sapiens) (UniProt P04626); test: Induction of endolysosomal trafficking of HER2 in human SK-BR-3 cells assessed as EGF-induced degradation of HER2 at 2 uM measured after 15 hrs post-EGF stimulation by western blot analysis relative to control; assay type: cell-based
Sequence of Receptor tyrosine-protein kinase erbB-2 (Homo sapiens) (P04626 whole entry): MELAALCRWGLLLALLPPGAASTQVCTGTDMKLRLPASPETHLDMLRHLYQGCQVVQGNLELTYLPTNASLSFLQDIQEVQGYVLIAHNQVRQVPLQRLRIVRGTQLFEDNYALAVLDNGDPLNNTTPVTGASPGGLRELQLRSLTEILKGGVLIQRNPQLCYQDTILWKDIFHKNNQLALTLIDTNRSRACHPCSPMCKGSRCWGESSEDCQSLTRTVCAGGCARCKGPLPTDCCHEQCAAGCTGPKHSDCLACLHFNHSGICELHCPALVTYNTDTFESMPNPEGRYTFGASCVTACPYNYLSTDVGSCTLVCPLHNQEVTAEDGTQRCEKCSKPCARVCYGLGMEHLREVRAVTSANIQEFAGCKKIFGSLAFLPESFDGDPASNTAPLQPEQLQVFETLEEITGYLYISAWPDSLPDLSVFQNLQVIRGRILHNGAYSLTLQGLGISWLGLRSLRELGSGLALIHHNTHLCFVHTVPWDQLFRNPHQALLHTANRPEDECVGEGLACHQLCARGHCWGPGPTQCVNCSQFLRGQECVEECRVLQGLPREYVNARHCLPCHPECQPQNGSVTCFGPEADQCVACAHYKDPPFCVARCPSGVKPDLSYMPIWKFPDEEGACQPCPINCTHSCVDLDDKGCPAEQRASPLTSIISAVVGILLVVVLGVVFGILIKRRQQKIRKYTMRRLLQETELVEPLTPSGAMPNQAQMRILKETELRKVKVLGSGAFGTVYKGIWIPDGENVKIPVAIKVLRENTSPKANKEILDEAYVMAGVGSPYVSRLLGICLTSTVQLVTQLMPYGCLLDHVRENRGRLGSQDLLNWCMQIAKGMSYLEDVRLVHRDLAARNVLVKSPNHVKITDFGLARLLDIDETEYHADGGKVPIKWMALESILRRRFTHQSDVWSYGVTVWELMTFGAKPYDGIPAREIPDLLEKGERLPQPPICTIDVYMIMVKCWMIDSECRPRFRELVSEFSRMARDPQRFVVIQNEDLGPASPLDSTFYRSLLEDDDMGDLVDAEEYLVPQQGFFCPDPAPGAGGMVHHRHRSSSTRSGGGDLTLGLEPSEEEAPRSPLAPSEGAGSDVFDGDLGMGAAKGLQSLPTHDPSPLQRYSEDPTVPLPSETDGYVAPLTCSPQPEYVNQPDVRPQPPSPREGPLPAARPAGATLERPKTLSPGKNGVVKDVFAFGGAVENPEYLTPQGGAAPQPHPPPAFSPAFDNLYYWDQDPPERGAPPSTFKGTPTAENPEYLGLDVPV

SK-BR-3 [12] = test: Antiproliferative activity against human SK-BR-3 cells assessed as reduction in cell growth incubated for 5 days by trypan blue exclusion assay; assay type: functional, cell-based; settings: time 5.0 day
HEK293T [13] = test: Induction of Beclin 1- FLAG tagged UVRAG interaction in HEK293T cells assessed as endogenous beclin 1 pull down at 10 uM by coimmunoprecipitation assay; assay type: cell-based; settings: Homo sapiens
SK-BR-3 [14] = test: Induction of apoptosis in human SK-BR-3 cells assessed as late apoptotic cells at 10 uM incubated for 24 hrs by flow cytometry with Annexin V-FITC/propidium iodide staining based flow cytometry assay (Rvb= 2.2%); assay type: functional
HEK293T [15] = test: Induction of FLAG tagged Beclin 1- Atg14L interaction in HEK293T cells assessed as increase in endogenous beclin 1 pull down at 10 to 20 uM by coimmunoprecipitation assay; assay type: cell-based; settings: Homo sapiens, dose 10-20 µM
HEK-293T [16] = test: Induction of autophagy in HEK293T cells assessed as increase in LC3-II protein level at 10 to 20 uM incubated for 3 hrs by western blot analysis; assay type: functional, cell-based; settings: Homo sapiens, dose 10-20 µM
SK-BR-3 [17] = test: Induction of apoptosis in human SK-BR-3 cells assessed as live cells at 10 uM measured after 24 hrs by annexin V-FITC/PI staining based flow cytometry analysis (Rvb= 90.6%); assay type: functional
HEK293T [18] = test: Induction of FLAG tagged Beclin 1- Atg14L interaction in HEK293T cells assessed as increase in endogenous beclin 1 pull down at 30 uM by coimmunoprecipitation assay; assay type: cell-based; settings: Homo sapiens
HEK-293T [19] = test: Cytotoxicity against HEK293T cells assessed as reduction in cell viability at 10 to 20 uM measured after 24 hrs by trypan blue exclusion assay; assay type: cell-based; settings: human, dose 10-20 µM
SK-BR-3 [20] = test: Induction of apoptosis in human SK-BR-3 cells assessed as increase in cleaved caspase-3 level at 10 uM incubated for 24 hrs by western blot analysis; assay type: functional, cell-based
SK-BR-3 [21] = test: Induction of apoptosis in human SK-BR-3 cells assessed as increase in cleaved PARP level at 10 uM incubated for 24 hrs by western blot analysis; assay type: functional, cell-based
Beclin-1 [22] = target: T1, Beclin-1; test: Inhibition of FLAG-tagged Beclin 1 self-association in HEK293T cells cotransfected with GFP assessed as reduction in beclin 1- GFP pull down by FLAG-beclin 1 by coimmunoprecipitation assay; assay type: cell-based
SK-BR-3 [23] = test: Induction of apoptosis in human SK-BR-3 cells assessed as early apoptotic cells at 5 uM measured after 24 hrs by annexin V-FITC/PI staining based flow cytometry analysis (Rvb= 2.2%); assay type: functional
SK-BR-3 [24] = test: Induction of apoptosis in human SK-BR-3 cells assessed as dead cells at 5 uM measured after 24 hrs by annexin V-FITC/PI staining based flow cytometry analysis (Rvb= 5.0%); assay type: functional
HEK-293T [25] = test: Induction of autophagy in human HEK293T cells assessed as increase in LC3-II protein level at 10 to 20 uM in presence of chloroquine measured after 3 hrs by western blot analysis; assay type: functional, cell-based; settings: dose 10-20 µM
[26] = target: Receptor tyrosine-protein kinase erbB-2 (Homo sapiens) (UniProt P04626); test: Induction of endolysosomal trafficking of HER2 in human SK-BR-3 cells assessed as EGF-induced degradation of HER2 at 2 uM measured after 24 hrs post-EGF stimulation by western blot analysis relative to control; assay type: cell-based
SK-BR-3 [27] = test: Induction of apoptosis in human SK-BR-3 cells assessed as live cells at 1 uM measured after 24 hrs by annexin V-FITC/PI staining based flow cytometry analysis (Rvb= 90.6%); assay type: functional
SK-BR-3 [28] = test: Induction of apoptosis in human SK-BR-3 cells assessed as early apoptotic cells at 1 uM measured after 24 hrs by annexin V-FITC/PI staining based flow cytometry analysis (Rvb= 2.2%); assay type: functional
SK-BR-3 [29] = test: Induction of apoptosis in human SK-BR-3 cells assessed as dead cells at 1 uM measured after 24 hrs by annexin V-FITC/PI staining based flow cytometry analysis (Rvb= 5.0%); assay type: functional
SK-BR-3 [30] = test: Induction of apoptosis in human SK-BR-3 cells assessed as late apoptotic cells at 1 uM incubated for 24 hrs by flow cytometry with Annexin V-FITC/propidium iodide staining based flow cytometry assay (Rvb= 2.2%); assay type: functional
SK-BR-3 [31] = test: Induction of apoptosis in human SK-BR-3 cells assessed as increase in cell death at 5 uM in presence of Z-VAD-FMK measured after 24 hrs by trypan blue exclusion assay; assay type: functional, cell-based
SK-BR-3 [32] = test: Induction of apoptosis in human SK-BR-3 cells assessed as dead cells at 40 uM measured after 24 hrs by annexin V-FITC/PI staining based flow cytometry analysis (Rvb= 5.0%); assay type: functional
SK-BR-3 [33] = test: Antiproliferative activity against human SK-BR-3 cells assessed as reduction in cell growth at 20 uM incubated for 5 days by trypan blue exclusion assay relative to control; assay type: functional; set-up: scale not given: the % may be the effect or the level left; settings: time 5 day
SK-BR-3 [34] = test: Induction of apoptosis in human SK-BR-3 cells assessed as early apoptotic cells at 40 uM measured after 24 hrs by annexin V-FITC/PI staining based flow cytometry analysis (Rvb= 2.2%); assay type: functional
SK-BR-3 [35] = test: Induction of apoptosis in human SK-BR-3 cells assessed as dead cells at 20 uM measured after 24 hrs by annexin V-FITC/PI staining based flow cytometry analysis (Rvb= 5.0%); assay type: functional
SK-BR-3 [36] = test: Induction of apoptosis in human SK-BR-3 cells assessed as live cells at 20 uM measured after 24 hrs by annexin V-FITC/PI staining based flow cytometry analysis (Rvb= 90.6%); assay type: functional
SK-BR-3 [37] = test: Induction of apoptosis in human SK-BR-3 cells assessed as live cells at 40 uM measured after 24 hrs by annexin V-FITC/PI staining based flow cytometry analysis (Rvb= 90.6%); assay type: functional
SK-BR-3 [38] = test: Induction of apoptosis in human SK-BR-3 cells assessed as late apoptotic cells at 40 uM incubated for 24 hrs by flow cytometry with Annexin V-FITC/propidium iodide staining based flow cytometry assay (Rvb= 2.2%); assay type: functional
SK-BR-3 [39] = test: Induction of apoptosis in human SK-BR-3 cells assessed as early apoptotic cells at 20 uM measured after 24 hrs by annexin V-FITC/PI staining based flow cytometry analysis (Rvb= 2.2%); assay type: functional
SK-BR-3 [40] = test: Induction of apoptosis in human SK-BR-3 cells assessed as late apoptotic cells at 20 uM incubated for 24 hrs by flow cytometry with Annexin V-FITC/propidium iodide staining based flow cytometry assay (Rvb= 2.2%); assay type: functional

T1 sequence (Q14457 whole entry, the tested form may be a part): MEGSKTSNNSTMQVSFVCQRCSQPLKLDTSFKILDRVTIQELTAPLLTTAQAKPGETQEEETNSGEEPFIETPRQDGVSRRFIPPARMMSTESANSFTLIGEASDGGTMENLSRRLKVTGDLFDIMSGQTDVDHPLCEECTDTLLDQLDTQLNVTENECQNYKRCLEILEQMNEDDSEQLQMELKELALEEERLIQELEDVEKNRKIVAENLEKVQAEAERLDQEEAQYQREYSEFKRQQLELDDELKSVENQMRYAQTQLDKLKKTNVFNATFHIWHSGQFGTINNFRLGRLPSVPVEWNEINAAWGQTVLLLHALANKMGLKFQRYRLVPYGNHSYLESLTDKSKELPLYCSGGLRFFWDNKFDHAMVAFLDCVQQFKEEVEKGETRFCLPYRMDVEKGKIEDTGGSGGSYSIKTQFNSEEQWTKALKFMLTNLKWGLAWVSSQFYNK

## CC[C@H](C)[C@@H]1NC(=O)[C@H](C(C)C)NC(=O)[C@H](CC(=O)O)NC(=O)[C@H](C(C)C)NC(=O)[C@H](CC(C)C)NC(=O)[C@H](NC(=O)[C@H](CC(N)=O)NC(=O)[C@H](Cc2ccccc2)NC(=O)[C@H](CC(C)C)NC(=O)[C@@H](NC(=O)[C@H](CCCNC(=N)N)NC(=O)[C@H](CCCNC(=N)N)NC(=O)[C@H](CCCNC(=N)N)NC(=O)[C@H](CCC(N)=O)NC(=O)[C@H](CCCNC(=N)N)NC(=O)[C@H](CCCNC(=N)N)NC(=O)[C@H](CCCCN)NC(=O)[C@H](CCCCN)NC(=O)[C@H](CCCNC(=N)N)NC(=O)CNC(=O)[C@H](Cc2ccc(O)cc2)NC(C)=O)C(C)C)CCCCCC/C=C/CCC[C@@H](C(=O)N[C@@H](CCCNC(=N)N)C(=O)N[C@@H](CCCCN)C(=O)N[C@H](C(N)=O)C(C)C)NC(=O)[C@H](CCCCN)NC1=O
Beclin-1 [1]
  Kd: 0.33 µM
SK-BR-3 [2]
  Activity: 1.2%
SK-BR-3 [3]
  Activity: Active
SK-BR-3 [4]
  Activity: 13.3%
[5]
  Activity: 60%
SK-BR-3 [6]
  Activity: 0.3%
SK-BR-3 [7]
  Activity: 81.1%
HEK-293T [8]
  Activity: inactive
SK-BR-3 [9]
  IC50: 7.12 µM
HEK-293T [10]
  Activity: inactive
[11]
  Activity: 50%
SK-BR-3 [12]
  Activity: Dose-dependent effect
HEK293T [13]
  Activity: Active
SK-BR-3 [14]
  Activity: 29.5%
HEK293T [15]
  Activity: inactive
HEK-293T [16]
  Activity: Active
SK-BR-3 [17]
  Activity: 69%
HEK293T [18]
  Activity: Active
HEK-293T [19]
  Activity: Non-Toxic
SK-BR-3 [20]
  Activity: inactive
SK-BR-3 [21]
  Activity: inactive
Beclin-1 [22]
  inhibition: Dose-dependent effect
SK-BR-3 [23]
  Activity: 2%
SK-BR-3 [24]
  Activity: 0.6%
HEK-293T [25]
  Activity: Active
[26]
  Activity: 70%

## COc1cccc2c1C(=O)c1c(O)c3c(c(O)c1C2=O)C[C@@](O)(C(=O)CO)C[C@@H]3O[C@H]1C[C@H](N)[C@H](O)[C@H](C)O1 [DOXORUBICIN]
SK-BR-3 [27]
  Activity: 48.1%
SK-BR-3 [28]
  Activity: 16.5%
SK-BR-3 [29]
  Activity: 16.7%
SK-BR-3 [30]
  Activity: 18.7%
SK-BR-3 [31]
  Activity: inactive

## CC[C@H](C)[C@H](NC(=O)[C@H](CC(C)C)NC(=O)[C@H](CCCNC(=N)N)NC(=O)[C@H](CCCNC(=N)N)NC(=O)[C@H](CCCNC(=N)N)NC(=O)[C@H](CCCNC(=N)N)NC(=O)[C@H](CCC(N)=O)NC(=O)[C@H](CCCNC(=N)N)NC(=O)[C@H](CCCNC(=N)N)NC(=O)[C@H](CCCCN)NC(=O)[C@H](CCCCN)NC(=O)[C@H](CCCNC(=N)N)NC(=O)CNC(=O)[C@H](Cc1ccc(O)cc1)NC(C)=O)C(=O)N[C@@H](CO)C(=O)N[C@@H](CCC(=O)O)C(=O)N[C@@H](CC(C)C)C(=O)N[C@@H]1CCCCCC/C=C/CCC[C@@H](C(=O)N[C@@H](C)C(N)=O)NC(=O)[C@H](CCCNC(=N)N)NC(=O)[C@H](CCC(N)=O)NC(=O)[C@H](CCCCN)NC(=O)[C@H](CCC(=O)O)NC(=O)[C@H](CCCNC(=N)N)NC(=O)[C@H](CC(=O)O)NC1=O
SK-BR-3 [2]
  Activity: 0.8%
SK-BR-3 [4]
  Activity: 8.2%
SK-BR-3 [32]
  Activity: 1.5%
SK-BR-3 [33]
  Activity: 30%
SK-BR-3 [34]
  Activity: 0.8%
SK-BR-3 [6]
  Activity: 0.2%
SK-BR-3 [7]
  Activity: 91%
SK-BR-3 [35]
  Activity: 3.5%
SK-BR-3 [36]
  Activity: 89%
SK-BR-3 [37]
  Activity: 76.1%
SK-BR-3 [14]
  Activity: 8.1%
SK-BR-3 [38]
  Activity: 21.6%
SK-BR-3 [17]
  Activity: 90.6%
SK-BR-3 [23]
  Activity: 0.2%
SK-BR-3 [24]
  Activity: 0.4%
SK-BR-3 [39]
  Activity: 1.1%
SK-BR-3 [40]
  Activity: 6.1%
